Drawing on patent publication US10093678B2, “Azaspiro derivatives as TRPM8 antagonists” (RaQualia Pharma Inc., priority 2014, dated 2018), this text covers IC50 for 49 compounds.

Molecules are shown by their SMILES. Where only a bound is given, the exact number is not on record here.

The target in this test is T1, human TRPM8 (Homo sapiens, UniProt Q7Z2W7).
T1 construct: expressed in transfected cells; host or cells: HEK293
T1 sequence (Q7Z2W7 whole entry): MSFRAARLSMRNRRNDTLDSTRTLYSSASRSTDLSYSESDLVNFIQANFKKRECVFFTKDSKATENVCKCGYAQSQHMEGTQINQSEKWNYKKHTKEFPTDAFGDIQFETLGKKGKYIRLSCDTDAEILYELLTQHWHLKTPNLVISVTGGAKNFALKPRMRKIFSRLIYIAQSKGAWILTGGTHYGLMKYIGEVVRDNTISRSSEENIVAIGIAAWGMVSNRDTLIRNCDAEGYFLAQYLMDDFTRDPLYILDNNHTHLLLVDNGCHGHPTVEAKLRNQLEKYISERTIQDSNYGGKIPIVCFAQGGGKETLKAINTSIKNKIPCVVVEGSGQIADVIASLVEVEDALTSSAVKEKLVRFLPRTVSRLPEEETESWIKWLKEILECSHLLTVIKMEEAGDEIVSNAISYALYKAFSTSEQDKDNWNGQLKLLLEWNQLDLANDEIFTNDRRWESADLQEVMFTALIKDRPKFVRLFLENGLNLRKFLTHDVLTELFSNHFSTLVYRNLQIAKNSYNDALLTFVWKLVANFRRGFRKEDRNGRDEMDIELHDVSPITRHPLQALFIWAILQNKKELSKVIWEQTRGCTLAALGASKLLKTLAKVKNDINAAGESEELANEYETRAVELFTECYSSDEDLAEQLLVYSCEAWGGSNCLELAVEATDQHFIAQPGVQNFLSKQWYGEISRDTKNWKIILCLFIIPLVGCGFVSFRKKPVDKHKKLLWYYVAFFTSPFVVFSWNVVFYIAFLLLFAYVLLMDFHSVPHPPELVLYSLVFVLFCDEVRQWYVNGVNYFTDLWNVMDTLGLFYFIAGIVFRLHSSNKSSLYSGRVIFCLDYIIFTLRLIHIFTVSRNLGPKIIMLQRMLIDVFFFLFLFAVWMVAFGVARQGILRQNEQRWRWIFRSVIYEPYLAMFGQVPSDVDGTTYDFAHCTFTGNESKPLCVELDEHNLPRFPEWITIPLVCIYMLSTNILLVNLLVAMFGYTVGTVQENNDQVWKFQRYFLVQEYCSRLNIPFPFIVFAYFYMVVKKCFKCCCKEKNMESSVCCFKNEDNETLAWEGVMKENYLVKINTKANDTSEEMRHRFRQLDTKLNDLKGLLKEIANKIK
Description: Menthol-induced Ca2+ influx in HEK293 cells stably expressing human TRPM8. It counts as cell-based. To be noted: 30 microM menthol-induced Ca2+ influx, read-out: IC50 against TRPM8. In a few lines:
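IC50 values were fitted from 11-point dose-response data averaged over duplicate wells. Compound was added for 5 min to Fluo4-loaded HEK293 cells carrying stable human TRPM8, in HBSS/HEPES pH 7.4 with probenecid. Intracellular Ca2+ change after 30 microM menthol addition was then imaged on FDSS.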
As a reminder, the IC50 is the concentration needed to halve the response being measured. As to `Cc1cc(C(=O)CN2C(=O)NC3(CCC(F)(F)CC3)C2=O)n(C)c1-c1cccc(C#N)c1` [Example 16-4], the IC50 was < 10 nM.

Regarding `Cc1cc(C(=O)CN2C(=O)NC3(CCC(F)(F)CC3)C2=O)n(C)c1-c1cccc(F)c1` [Example 16-5], the IC50 was < 100 nM.

For `Cc1cc(C(=O)CN2C(=O)NC3(CCC(F)(F)CC3)C2=O)n(C)c1-c1cccc(C(N)=O)c1` [Example 16-6], the IC50 was < 100 nM.

For the compound `Cc1cc(C(=O)CN2C(=O)NC3(CCC(F)(F)CC3)C2=O)n(C)c1-c1ccccc1C#N` [Example 16-7], the IC50 is < 100 nM.

Consider `Cc1cc(C(=O)CN2C(=O)NC3(CCC(F)(F)CC3)C2=O)n(C)c1-c1ccccc1CO` [Example 16-8], for which the IC50 was < 100 nM.

Consider `Cc1cc(C(=O)CN2C(=O)NC3(CCC(F)(F)CC3)C2=O)n(C)c1-c1cc(F)cc(F)c1` [Example 16-9], for which the IC50 was < 100 nM.

Regarding `Cc1ccncc1-c1c(C)cc(C(=O)CN2C(=O)NC3(CCC(F)(F)CC3)C2=O)n1C` [Example 16-10], the IC50 is < 100 nM.

Turning to `Cc1cc(C(=O)CN2C(=O)NC3(CCC(F)(F)CC3)C2=O)n(C)c1-c1cccnc1` [Example 16-11], the IC50 was < 100 nM.

Regarding `Cc1cc(C(=O)CN2C(=O)NC3(CCC(F)(F)CC3)C2=O)n(C)c1-c1cccc(Cl)c1` [Example 16-12], the IC50 is < 100 nM.

`Cc1cc(C(=O)CN2C(=O)NC3(CCC(F)(F)CC3)C2=O)n(C)c1-c1ccccc1F` [Example 16-13]: the IC50 is < 100 nM.

Turning to `COc1cccc(-c2c(C)cc(C(=O)CN3C(=O)NC4(CCC(F)(F)CC4)C3=O)n2C)c1` [Example 16-14], the IC50 is < 100 nM.

Take `Cc1cc(C(=O)CN2C(=O)NC3(CCC(F)(F)CC3)C2=O)n(C)c1-c1cccc2ccncc12` [Example 16-15]: the IC50 was < 100 nM.

On to `Cc1cc(C(=O)CN2C(=O)NC3(CCC(F)(F)CC3)C2=O)n(C)c1-c1cncnc1` [Example 16-16], for which the IC50 is < 100 nM.

With `Cc1cc(C(=O)CN2C(=O)NC3(CCC(F)(F)CC3)C2=O)n(C)c1-c1cccc2c1CNC2=O` [Example 16-17], the IC50 is < 100 nM.

Regarding `Cc1cccc(-c2c(C)cc(C(=O)CN3C(=O)NC4(CCC(F)(F)CC4)C3=O)n2C)c1` [Example 16-18], the IC50 was < 100 nM.

As to `Cc1ccccc1-c1c(C)cc(C(=O)CN2C(=O)NC3(CCC(F)(F)CC3)C2=O)n1C` [Example 16-19], the IC50 was < 100 nM.

Turning to `CC(=O)c1cccc(-c2c(C)cc(C(=O)CN3C(=O)NC4(CCC(F)(F)CC4)C3=O)n2C)c1` [Example 16-20], the IC50 is < 100 nM.

Take `Cc1cc(C(=O)CN2C(=O)NC3(CCC(F)(F)CC3)C2=O)n(C)c1-c1cncc(F)c1` [Example 16-21]: the IC50 is < 100 nM.

Take `Cc1c(C(=O)CN2C(=O)NC3(CCC(F)(F)CC3)C2=O)cn(C)c1-c1cccc(C#N)c1` [Example 16-22]: the IC50 was < 100 nM.

For `Cc1c(C(=O)CN2C(=O)NC3(CCC(F)(F)CC3)C2=O)cn(C)c1-c1cncc(F)c1` [Example 16-23], the concentration for half-maximal inhibition (IC50) was < 100 nM.

In the case of `Cc1c(C(=O)CN2C(=O)NC3(CCC(F)(F)CC3)C2=O)cn(C)c1-c1cccc(F)c1` [Example 16-24], the IC50 was < 100 nM.

For `Cc1c(C(=O)CN2C(=O)NC3(CCC(F)(F)CC3)C2=O)cn(C)c1-c1ccccc1C#N` [Example 16-25], the IC50 is < 100 nM.

`Cc1c(C(=O)CN2C(=O)NC3(CCC(F)(F)CC3)C2=O)cn(C)c1-c1cccnc1` [Example 16-26]: the IC50 was < 500 nM.

Consider `Cc1c(C(=O)CN2C(=O)NC3(CCC(F)(F)CC3)C2=O)cn(C)c1-c1cccc2ccncc12` [Example 16-27], for which the IC50 was < 100 nM.

In the case of `Cc1ncccc1-c1c(C)c(C(=O)CN2C(=O)NC3(CCC(F)(F)CC3)C2=O)cn1C` [Example 16-28], the IC50 is < 500 nM.

In the case of `Cn1c(C(=O)CN2C(=O)NC3(CCC(F)(F)CC3)C2=O)ccc1-c1ccccc1C#N` [Example 16-29], the IC50 is < 500 nM.

On to `Cn1c(C(=O)CN2C(=O)NC3(CCC(F)(F)CC3)C2=O)ccc1-c1ccccc1CO` [Example 16-30], for which the IC50 is < 500 nM.

On to `Cn1c(C(=O)CN2C(=O)NC3(CCC(F)(F)CC3)C2=O)ccc1-c1cncc(F)c1` [Example 16-31], for which the IC50 is < 500 nM.

Consider `Cc1ccccc1-c1ccc(C(=O)CN2C(=O)NC3(CCC(F)(F)CC3)C2=O)n1C` [Example 16-32], for which the IC50 is < 500 nM.

Turning to `Cc1cc(C(=O)CN2C(=O)NC3(CCC(F)(F)CC3)C2=O)n(C)c1-c1cncc(C(N)=O)c1` [Example 16-33], the IC50 was < 500 nM.

As to `Cc1c(C(=O)CN2C(=O)NC3(CCC(F)(F)CC3)C2=O)cn(C)c1-c1ccccc1CO` [Example 16-34], the IC50 is < 500 nM.

Regarding `Cc1cc(C(=O)CN2C(=O)NC3(CCC(F)(F)CC3)C2=O)n(C)c1-c1cccc2[nH]ncc12` [Example 16-35], the IC50 was < 500 nM.

In the case of `Cn1c(-c2cccc(F)c2)cnc1C(=O)CN1C(=O)NC2(CCC(F)(F)CC2)C1=O` [Example 17-1], the IC50 was < 100 nM.

As for `Cn1c(-c2cccc3ccncc23)cnc1C(=O)CN1C(=O)NC2(CCC(F)(F)CC2)C1=O` [Example 17-2], the IC50 was < 100 nM.

In the case of `Cn1c(-c2cccc(C#N)c2)cnc1C(=O)CN1C(=O)NC2(CCC(F)(F)CC2)C1=O` [Example 17-3], the IC50 is < 100 nM.

For `Cn1c(C(=O)CN2C(=O)NC3(CCC(F)(F)CC3)C2=O)nc(C2CC2)c1-c1ccccc1` [Example 17-4], the IC50 was < 100 nM.

`Cn1c(C(=O)CN2C(=O)NC3(CCC(F)(F)CC3)C2=O)nc(C2CC2)c1-c1cccnc1` [Example 17-5]: the IC50 was < 100 nM.

Regarding `Cc1nc(C(=O)CN2C(=O)NC3(CCC(F)(F)CC3)C2=O)n(C)c1-c1cccc(F)c1` [Example 17-6], the IC50 was < 10 nM.

Turning to `Cc1nc(C(=O)CN2C(=O)NC3(CCC(F)(F)CC3)C2=O)n(C)c1-c1ccccc1` [Example 17-7], the IC50 was < 100 nM.

Consider `Cc1nc(C(=O)CN2C(=O)NC3(CCC(F)(F)CC3)C2=O)n(C)c1-c1cccc(C#N)c1` [Example 17-8], for which the IC50 is < 100 nM.

With `Cc1nc(C(=O)CN2C(=O)NC3(CCC(F)(F)CC3)C2=O)n(C)c1-c1cccc2ccncc12` [Example 17-9], the IC50 was < 100 nM.

For `Cc1nc(C(=O)CN2C(=O)NC3(CCC(F)(F)CC3)C2=O)n(C)c1-c1ccccc1CO` [Example 17-10], the IC50 was < 100 nM.

As for `Cc1nc(C(=O)CN2C(=O)NC3(CCC(F)(F)CC3)C2=O)n(C)c1-c1cc(F)cc(F)c1` [Example 17-11], the 50% inhibitory concentration (IC50) is < 100 nM.

As to `Cc1nc(C(=O)CN2C(=O)NC3(CCC(F)(F)CC3)C2=O)n(C)c1-c1cccnc1` [Example 17-12], the IC50 is < 500 nM.

`Cc1ncccc1-c1c(C)nc(C(=O)CN2C(=O)NC3(CCC(F)(F)CC3)C2=O)n1C` [Example 17-13]: the IC50 is < 500 nM.

For the compound `Cc1cccc(-c2cnc(C(=O)CN3C(=O)NC4(CCC(F)(F)CC4)C3=O)n2C)c1` [Example 17-14], the IC50 was < 500 nM.

Turning to `Cn1c(-c2cccnc2)cnc1C(=O)CN1C(=O)NC2(CCC(F)(F)CC2)C1=O` [Example 17-15], the IC50 is < 500 nM.

Regarding `Cc1nc(C(=O)CN2C(=O)NC3(CCC(F)(F)CC3)C2=O)sc1-c1cccnc1` [Example 18-1], the IC50 was < 100 nM.

For `Cc1ccncc1-c1sc(C(=O)CN2C(=O)NC3(CCC(F)(F)CC3)C2=O)nc1C` [Example 18-2], the IC50 was < 10 nM.
